The text below walks through data of US5723484A, “Benzopyran compounds as 5-HT2C receptor antagonists” (Adir et Compagnie, priority 1994, dated 1998).

Assay [1] deals with T1, 5-HT2C receptors (Sus scrofa, UniProt K7GSR7).
T1 construct: pig cerebral plexus; from tissue; host or cells: pig cerebral plexus (own knowledge: choroid plexus)
T1 sequence (K7GSR7 1-457): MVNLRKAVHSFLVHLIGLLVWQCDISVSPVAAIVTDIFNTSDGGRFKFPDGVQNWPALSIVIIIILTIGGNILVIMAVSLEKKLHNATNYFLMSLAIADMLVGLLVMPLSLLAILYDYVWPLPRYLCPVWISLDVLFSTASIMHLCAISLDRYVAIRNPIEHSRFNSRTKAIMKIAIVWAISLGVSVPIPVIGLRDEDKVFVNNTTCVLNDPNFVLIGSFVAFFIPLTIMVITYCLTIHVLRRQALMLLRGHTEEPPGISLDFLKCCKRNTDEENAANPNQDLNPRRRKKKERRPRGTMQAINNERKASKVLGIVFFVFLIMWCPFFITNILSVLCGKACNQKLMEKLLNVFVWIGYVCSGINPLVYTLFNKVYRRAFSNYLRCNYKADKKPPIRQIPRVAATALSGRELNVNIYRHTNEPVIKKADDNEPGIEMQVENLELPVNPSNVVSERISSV
Kind of assay: biochemical. The class given is binding, pig. The conditions noted are these: 5-HT2C Ki (nM), pig cerebral plexus, [3H]-mesulergine 1.0 nM; average of two to four determinations. Here is the method: (§1) Measurement of the in vitro affinity for the 5-HT2C and 5-HT2A receptors
(§2) The procedures described for the studies of the binding to the 5-HT2A and 5-HT2C receptors are exactly those described by H. Canton et al. (Eur. J. Pharmacol., 191, 93, 1990) and M. J. Millan et al. (J. Pharmacol. Exp. Ther., 262, 451-463, 1992). For 5-HT2A : rat frontal cortex/[^3 H]-ketanserin (1.0 nM). For 5-HT2C : pig […] plexus/[^3 H]-mesulergine (1.0 nM). The 50% inhibitory doses (ID50) are determined by regression analysis and the pKi values are calculated as follows: [formula] [L]=concentration of the Kd-Kd=dissociation constant Results

Assay [2] relates to 5-HT2C receptors. Kind of assay: biochemical. It is filed as binding, pig. The conditions noted are these: for 5-HT2A /5-HT2C affinity ratio: 5-HT2A Ki (rat frontal cortex) over 5-HT2C Ki (pig cerebral plexus). Here is the method: as §1, §2
The next assay addresses T2, 5-HT2A receptors (Rattus norvegicus, UniProt P14842).
T2 construct: rat frontal cortex; from tissue; host or cells: rat frontal cortex
Kind of assay: In vitro affinity for the 5-HT2A receptors, rat frontal cortex/[3H]-ketanserin (1.0 nM). The class given is binding. The conditions noted are these: rat frontal cortex, [3H]-ketanserin 1.0 nM; average of two to four determinations. Here is the method:
as §1, §2

Structures can show the parent of a compound that is named as a salt.

T2 sequence (P14842 whole entry): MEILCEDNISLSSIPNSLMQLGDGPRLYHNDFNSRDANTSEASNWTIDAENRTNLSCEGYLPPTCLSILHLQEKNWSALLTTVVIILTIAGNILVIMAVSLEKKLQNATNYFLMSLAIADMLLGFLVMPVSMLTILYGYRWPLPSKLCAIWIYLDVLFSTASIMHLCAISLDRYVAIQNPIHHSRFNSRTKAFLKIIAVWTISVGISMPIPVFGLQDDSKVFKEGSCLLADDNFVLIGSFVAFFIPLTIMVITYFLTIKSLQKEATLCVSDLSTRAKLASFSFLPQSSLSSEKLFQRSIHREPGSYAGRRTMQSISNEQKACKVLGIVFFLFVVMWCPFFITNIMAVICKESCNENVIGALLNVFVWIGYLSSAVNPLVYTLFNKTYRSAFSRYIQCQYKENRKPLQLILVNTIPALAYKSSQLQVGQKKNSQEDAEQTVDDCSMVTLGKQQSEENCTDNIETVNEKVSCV

Usually Ki stands for a measure of affinity in units of concentration, obtained from inhibition or displacement. A lower Ki goes with a stronger hold on the target. On to `c1ccc(CN2C[C@H]3COc4ccc5ccccc5c4[C@H]3C2)cc1` (relative stereo) [Example 37, cis-2-Benzyl-1,2,3,3a,4,11c-hexahydro-5-oxa-2-aza-cyclopenta[c]phenanthrenehydrochloride], for which the Ki at 5-HT2C receptors [1] was determined as 155 nM; on 5-HT2A receptors, 1350 nM. For the same molecule, in the assay with 5-HT2C receptors [2], the “5-HT2A /5-HT2C affinity ratio” value is given as 8.7.
As for `C=CCN1C[C@@H]2COc3cccc(OC)c3[C@H]2C1` (relative stereo) [Example 7, trans-2-Allyl-9-methoxy-1,3,3a,4,9b-pentahydro-(1)-benzopyrano[3,4-c]pyrrol], the Ki was determined as 120 nM at 5-HT2C receptors [1] and 1820 nM at 5-HT2A receptors. Further, the “5-HT2A /5-HT2C affinity ratio” value with 5-HT2C receptors [2] was determined as 15.2. In addition, the “selectivity relative to the reference compound SB 200,646” value in the assay with 5-HT2C receptors [2] (5-HT2C vs 5-HT2A, relative to SB 200,646) is given as “twice that of the reference compound SB 200,646”.
With `COc1cccc2c1[C@H]1CN(Cc3ccccc3)C[C@@H]1CO2.Cl` (relative stereo) [Example 3, trans-2-Benzyl-9-methoxy-1,3,3a,4,9b-pentahydro-(1)-benzopyrano[3,4-c]pyrrole hydrochloride], the Ki was found to be 48 nM at 5-HT2C receptors [1] and 269 nM at 5-HT2A receptors. Further, the “5-HT2A /5-HT2C affinity ratio” value in the assay on 5-HT2C receptors [2] is on record as 5.6.
For the molecule `COc1cccc2c1[C@@H]1CN(CCNC(=O)c3ccc(F)cc3)C[C@H]1CO2` (relative stereo) [Example 8, trans-2-[3-(4-Fluorobenzoylamino)ethyl]-9-methoxy-1,3,3a,4,9b-pentahydro-(1)-benzopyrano[3,4-c]pyrrole], the Ki came out at 107 nM on 5-HT2C receptors [1] and 95 nM at 5-HT2A receptors. Also, the “5-HT2A /5-HT2C affinity ratio” value in the assay on 5-HT2C receptors [2] was 0.9.
The matching figures for `COc1cccc2c1[C@H]1CNC[C@@H]1CO2.Cl` (relative stereo) [Example 4, trans-9-Methoxy-1,3,3a,4,9b-pentahydro-(1)-benzopyrano[3,4-c]pyrrole hydrochloride]: 431 nM, 3470 nM and 8.0.
The matching figures for `Cl.c1ccc(CN2C[C@@H]3COc4ccccc4[C@@H]3C2)cc1` (relative stereo) [Example 12, cis-2-Benzyl-1,3,3a,4,9b-pentahydro-(1)-benzopyrano[3,4-c]pyrrole hydrochloride]: 832 nM, 3550 nM and 4.3.
The matching figures for `CCCN1C[C@@H]2COc3ccc(OC)cc3[C@H]2C1.Cl` (relative stereo) [Example 11, trans-2-Propyl-8-methoxy-1,3,3a,4,9b-pentahydro-(1)-benzopyrano[3,4-c]pyrrole hydrochloride]: 4070 nM, greater than 10000 nM and greater than 2.3.
Consider `COc1ccc2c(c1)OC[C@@H]1CN(Cc3ccccc3)C[C@H]21` (relative stereo) [Example 21, cis-2-Benzyl-7-methoxy-1,3,3a,4,9b-pentahydro-(1)-benzopyrano[3,4-c]pyrrolehydrochloride], for which the Ki at 5-HT2C receptors [1] came to 871 nM; at 5-HT2A receptors, 617 nM. Also, in the assay on 5-HT2C receptors [2], the “5-HT2A /5-HT2C affinity ratio” value is 0.7.
The matching figures for `Oc1cccc2c1[C@H]1CN(Cc3ccccc3)C[C@H]1CO2` (relative stereo) [Example 14, cis-2-Benzyl-9-hydroxy-1,3,3a,4,9b-pentahydro-(1)-benzopyrano[3,4-c]pyrrolehydrochloride]: 219 nM, 1100 nM and 5.00.
The matching figures for `Cl.c1ccc(CN2C[C@@H]3COc4c(ccc5ccccc45)[C@@H]3C2)cc1` (relative stereo) [Example 35, cis-16-Benzyl-12,13,14,15,16,17-hexahydro-11-oxa-16-aza-cyclopenta[a]phenanthrene hydrochloride]: 331 nM, 955 nM and 2.9.
The matching figures for `Cl.c1ccc2c(c1)OC[C@H]1CNC[C@@H]21` (relative stereo) [Example 13, cis-1,3,3a,4,9b-Pentahydro-(1)-benzopyrano[3,4-c]pyrrole hydrochloride]: 3090 nM, greater than 10000 nM and greater than 3.33.
